Laboratory results: ChEMBL document CHEMBL5241088, “Selective SIRT2 inhibitors as promising anticancer therapeutics: An update from 2016 to 2020” (Eur J Med Chem, 2021)
One block for each molecule: values may come before it.

Columns and labels:
[1] = biological target: T1, NAD-dependent protein deacetylase sirtuin-2 (Homo sapiens, UniProt Q8IXJ6); experiment: Inhibition of human GST-fused SIRT2 expressed in Escherichia coli BL21(DE3)
T1 sequence (Q8IXJ6 whole entry): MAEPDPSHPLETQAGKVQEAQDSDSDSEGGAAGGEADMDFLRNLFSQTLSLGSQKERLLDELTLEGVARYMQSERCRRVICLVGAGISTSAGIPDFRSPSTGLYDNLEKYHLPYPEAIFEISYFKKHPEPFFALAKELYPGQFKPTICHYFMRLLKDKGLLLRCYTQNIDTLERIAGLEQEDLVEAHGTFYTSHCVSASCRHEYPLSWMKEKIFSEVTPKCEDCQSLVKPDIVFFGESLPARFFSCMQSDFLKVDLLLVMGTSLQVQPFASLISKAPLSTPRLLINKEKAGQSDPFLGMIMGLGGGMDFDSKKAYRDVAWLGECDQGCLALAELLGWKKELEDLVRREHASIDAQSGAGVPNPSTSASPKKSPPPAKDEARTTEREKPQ

[2] = biological target: T1, NAD-dependent protein deacetylase sirtuin-2; experiment: Inhibition of human SIRT2 expressed in Escherichia coli BL21(DE3) using Ac-Arg-His-Lys-[Lys-(Ac)]-AMC substrate
MDA-MB-231 [3] = experiment: Antiproliferative activity against human MDA-MB-231 cells incubated for 72 hrs by MTT assay; type: functional
MCF7 [4] = experiment: Antiproliferative activity against human MCF7 cells incubated for 72 hrs by MTT assay; type: functional
[5] = biological target: T1, NAD-dependent protein deacetylase sirtuin-2; experiment: Inhibition of SIRT2 (unknown origin)
[6] = biological target: T2, NAD-dependent protein deacetylase sirtuin-2 (Homo sapiens) (UniProt Q8IXJ6); experiment: Inhibition of human SIRT2 (34 to 356 amino acids) by surface plasmon resonance assay relative to control; settings: concentration not given here
T2 sequence (whole entry): T1 sequence (Q8IXJ6 whole entry)

[7] = biological target: T1, NAD-dependent protein deacetylase sirtuin-2; experiment: Inhibition of human SIRT2 using sirtuin substrate incubated for 30 mins by enzymatic fluorescence assay
Raji = experiment: Cytotoxicity against human Raji cells assessed as cell viability after 72 hrs by CellTiter-Glo assay; type: functional, cell-based
[8] = Cytotoxicity against human DLBCL cells assessed as cell viability after 72 hrs by CellTiter-Glo assay; type: functional, cell-based
[9] = biological target: T1, NAD-dependent protein deacetylase sirtuin-2; experiment: Inhibition of human SIRT2 using Ac-peptide as substrate assessed as fluorescence intensity by microplate reader
[10] = biological target: T1, NAD-dependent protein deacetylase sirtuin-2; experiment: Inhibition of recombinant SIRT2 (unknown origin) using (FAM)-labeled fluorescent peptide-RHKK(Ac)LM by electrophoretic mobility shift assay
MDA-MB-231 [11] = experiment: Cytotoxicity against human MDA-MB-231 cells assessed as cell viability measured after 3 days by Cell Titer Blue assay; type: functional, cell-based; settings: MDA-MB-231, 72 h
MCF7 [12] = experiment: Cytotoxicity against human MCF7 cells assessed as cell viability measured after 3 days by Cell Titer Blue assay; type: functional, cell-based; settings: MCF7, 72 h
MDA-MB-468 = experiment: Cytotoxicity against human MDA-MB-468 cells assessed as cell viability measured after 3 days by Cell Titer Blue assay; type: functional, cell-based; settings: MDA-MB-468, 72 h
MCF7 [13] = experiment: Antiproliferative activity against human MCF7 cells; type: functional, cell-based
[14] = biological target: T1, NAD-dependent protein deacetylase sirtuin-2; experiment: Inhibition of human SIRT2 demyristoylation activity using ETDKac as substrate
HEK-293T = experiment: Antiproliferative activity against human HEK293T cells; type: functional, cell-based
[15] = biological target: T1, NAD-dependent protein deacetylase sirtuin-2; experiment: Inhibition of human SIRT2 deacetylase activity using QPKKac as substrate

GI50 (MDA-MB-231 [3]): 8.3 µM
GI50 (MCF7 [4]): 8.3 µM
IC50 [5]: 1560 nM
SMILES: C[C@H](NC(=O)[C@H](CCCCNC(=S)CNC(=O)c1ccccc1Nc1cccc(OCCc2ccccc2)c1)NC(=O)OCc1ccccc1)C(N)=O

inhibition [6]: 73.1%
SMILES: CCOC(=O)c1c(/C=N/OCc2cn(CC(=O)c3ccc(OC)cc3)nn2)c2ccccc2n1C

IC50 [7]: 9.2 µM
SMILES: COc1c(O)cc2oc3cc(O)c(CC=C(C)C)c(O)c3c(=O)c2c1CC=C(C)C [MANGOSTIN]

IC50 [7]: 18.9 µM
SMILES: COc1cc2oc3cc(O)c(OC)c(CC=C(C)C)c3c(=O)c2c(O)c1CC=C(C)C

IC50 (MCF7 [13]): 50 nM
IC50 [14]: 90 nM
SMILES: CCCCCCCCCCCCCC(=S)NCCCC[C@H](NS(C)(=O)=O)C(=O)N[C@@H](C)C(=O)N[C@@H](CCCNC(=N)N)C(N)=O
IC50 (HEK-293T): 10 nM

More lines, now with the values behind:

SMILES: CCC(C)(C)c1ccc(OCC(O)CN2C[C@@H]3C[C@H](C2)c2cccc(=O)n2C3)c(C(C)(C)CC)c1 (stereo partly drawn)
IC50 [1]: 460 nM

SMILES: COc1ccc2cc(S(=O)(=O)Cc3ccc(OC(C)=O)cc3)oc2c1
IC50 [2]: 3.81 µM

SMILES: CNC(=O)C(Cc1c(O)ccc2cc(Br)ccc12)C(=O)c1ccc(Br)cc1 (stereo not drawn)
IC50 (Raji): 9.1 µM
IC50 [8]: 5.7 µM

SMILES: O=C(CSc1nnc2c3ccccc3n(Cc3ccccc3)c2n1)Nc1cccc2ccccc12
IC50 [9]: 1300 nM

SMILES: Cc1[nH]c2c(c1C(=O)N(C)Cc1cccc(-c3ccc(C(F)(F)F)cc3)c1)C(=O)CC(C)(C)C2
IC50 [5]: 980 nM

SMILES: C=CCNC(=S)N/N=C/c1ccc(OC)c(Cn2cc([N+](=O)[O-])cn2)c1
IC50 [10]: 180 nM

SMILES: CCCCCCCCCCCCCC(=S)NCCCCC(NC(=O)OCc1ccccc1)C(=O)Nc1ccccc1 (stereo not drawn)
IC50 (MDA-MB-231 [11]): 34.1 µM
IC50 (MCF7 [12]): 8.4 µM
IC50 (MDA-MB-468): 8.6 µM

SMILES: CC(C)=CCc1c(O)cc2oc3cc(O)c(O)c(CC=C(C)C)c3c(=O)c2c1O
IC50 [7]: 3.8 µM

SMILES: CCCCCCCCCCCCCC(=S)NCCCC[C@H](NS(C)(=O)=O)C(=O)N[C@H](C)C(=O)N[C@@H](CCCNC(=N)N)C(N)=O
IC50 (MCF7 [13]): 500 nM
IC50 (HEK-293T): 100 nM
IC50 [15]: 70 nM
